Laboratory results as given in the NIST ThermoML archive (doi:10.1016/j.fluid.2007.06.012).
Numbers after ± are expanded uncertainties.

Conditions: Liquid, Closed cell (Static) method

FC(F)(F)C(F)(F)F [hexafluoroethane]
Conditions	vapor or sublimation pressure [kPa]
243.33 K	769 ± 3
245.32 K	816 ± 3
249.31 K	928 ± 3
253.29 K	1048 ± 3
257.31 K	1183 ± 4
261.29 K	1328 ± 4
265.28 K	1489 ± 4
269.27 K	1659 ± 4
273.27 K	1847 ± 4
277.24 K	2050 ± 4
281.23 K	2270 ± 5
283.23 K	2387 ± 5
285.23 K	2509 ± 5
287.22 K	2636 ± 5
289.22 K	2769 ± 5
290.23 K	2839 ± 5
290.72 K	2873 ± 5
291.22 K	2909 ± 5
291.72 K	2946 ± 5
292.22 K	2982 ± 5
